The text below walks through data of US11440880B2, “Thalidomide analogs and methods of use” (The USA, as represented by the Secretary, Department of …, priority 2015, dated 2022).

The test system of series [1] is mpo:GFP zebrafish embryos (neutrophil migration to the wound site). The experiment in a line: mpo:GFP zebrafish fin-clip neutrophil migration (inflammation) assay. Format: in vivo. Set-up: mpo:GFP inflammation n (survived/tested): concentration or dose not given beside the values. The following applies: for minimal effective concentration: Danio rerio, Neutrophil, lowest concentration producing an effect, compounds not producing an effect shown at the highest evaluated concentration; for mpo:GFP inflammation n (survived/tested): embryos survived/tested at the concentration given. The method in brief: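 Tg(mpo::EGFP) larvae tail-fin clipped (dorsal third removed) at 72 hpf, then immersed in compound or vehicle. Neutrophils migrating to the wound site counted from images 24 h later; at least 50% reduction scored as anti-inflammatory. Viability and morphology also assessed.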

The test system of another series is RAW 264.7 cells. The experiment in a line: Cell viability (CellTiter 96 AQueous One) of LPS-challenged RAW 264.7 cells. Format: cell-based, mouse. Set-up: key: NS=not significant; a “+” sign=anti-inflammatory or increased cell numbers; a “−” sign=cell toxicity or pro-inflammatory. The method in brief:
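RAW 264.7 murine macrophages pretreated 1 h with compound or DMSO vehicle, then challenged with LPS (serotype 055:B5) at 30 or 60 ng/mL final for 24 h. After media replacement, viability measured by tetrazolium (MTS) conversion, absorbance at 490 nm, reported as O.D.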

A word on the minimal effective concentration: it is the lowest level tested that produced the effect sought.

In the case of `O=C1CCC(N2C(=O)c3cccc([N+](=O)[O-])c3C2=O)C(=O)N1` (stereo not shown) [Compound 5], the minimal effective concentration in series [1] is 10 µg/mL. Also, the “mpo:GFP inflammation n (survived/tested)” value in series [1] is recorded as 28/28. The Viability result with RAW 264.7 cells (1 μM), in the series on RAW 264.7 cells (10 μM), in the series with RAW 264.7 cells (30 μM), with RAW 264.7 cells (60 μM) and with RAW 264.7 cells (100 μM) was “NS” each time.

In series [1], `O=C1NC(=S)CCC1N1C(=O)c2cccc([N+](=O)[O-])c2C1=O` (stereo not shown) [Compound 7, 2-(2-Oxo-6-thioxo-3-piperidinyl)-4-nitro-1H-isoindole-1,3(2H)-dione] had a minimal effective concentration of 10 µg/mL. In series [1], the “mpo:GFP inflammation n (survived/tested)” value was 29/29. Moreover, the Viability result is “NS” in the series on RAW 264.7 cells (1 μM); “NS” with RAW 264.7 cells (10 μM); “NS” in the series with RAW 264.7 cells (30 μM); “NS” in the series with RAW 264.7 cells (60 μM); “+” in the series on RAW 264.7 cells (100 μM).

The compound `Nc1cccc2c1CN(C1CCC(=O)NC1=O)C2=S` (stereo not shown) [Compound 29] displayed a minimal effective concentration in series [1] of 5 µg/mL. Also, in series [1], the “mpo:GFP inflammation n (survived/tested)” value was 2/10. For the same compound, the Viability entry in the series with RAW 264.7 cells (3 μM), in the series with RAW 264.7 cells (10 μM) and with RAW 264.7 cells (30 μM) was “−” each time.

Compound `Nc1cccc2c1CN(C13CC4CC(CC(C4)C1)C3)C2=O` [Compound 77, 2,3-Dihydro-4-amino-2-(tricyclo[3.3.1.1^3,7]dec-1-yl)-1H-isoindol-1-one] returned a minimal effective concentration in series [1] of 200 µg/mL. Also, the “mpo:GFP inflammation n (survived/tested)” value in series [1] is reported as 5/21. Besides, the Viability result with RAW 264.7 cells (1 μM), in the series with RAW 264.7 cells (10 μM) and in the series with RAW 264.7 cells (30 μM) was “NS” in each case.

`CC(N1Cc2c(N)cccc2C1=O)C12CC3CC(CC(C3)C1)C2` (stereo not shown) [Compound 81] displayed a minimal effective concentration in series [1] of 50 µg/mL. The “mpo:GFP inflammation n (survived/tested)” value in series [1] is 9/21. The Viability entry in the series on RAW 264.7 cells (1 μM), in the series on RAW 264.7 cells (10 μM) and in the series on RAW 264.7 cells (30 μM) was “NS” each time.

In turn, `O=C1c2ccccc2CN1C12CC3CC(CC(O)(C3)C1)C2` [Compound 86, 2,3-Dihydro-2-(tricyclo[3.3.1.1^3,7]dec-1-hydroxy-3-yl)-1H-isoindol-1-one] gave a minimal effective concentration in series [1] of 100 µg/mL. For the same compound, the “mpo:GFP inflammation n (survived/tested)” value in series [1] is on record as 14/19. Besides, the Viability result in the series with RAW 264.7 cells (1 μM), in the series on RAW 264.7 cells (10 μM) and with RAW 264.7 cells (30 μM) was “NS” in each case.
